Row | Compound | melting point
1 | COc1ccc(-c2nn3c(S(C)=O)nnc3c3ccccc23)cc1 (configuration not stated) | 201 °C
2 | NS(=O)(=O)c1ccc(NC(=O)CNc2ccccc2)c(Cl)c1 | 185 to 186 °C
3 | CCCCC(=O)NCc1ccc(C#CCCOCCCCCCNCc2ccccc2)cc1 | 66 to 67 °C
4 | Cc1ccc(-c2c(-c3ccc(S(C)(=O)=O)cc3)cnn(-c3ccc(F)c(F)c3)c2=O)cc1F | 204 to 206 °C
5 | CN1C(=O)CN=C(c2ccccn2)c2cc(C#C[Si](C)(C)C)ccc21 | 194 to 195 °C
6 | Cn1cnnc1C(O)(c1ccc(Cl)cc1)c1ccc2[nH]c(=O)cc(-c3cccc(Cl)c3)c2c1 (configuration not stated) | > 260 °C
7 | O=CCOc1ccc(Cl)cc1 | 122 to 128 °C
8 | O=Cc1cc(Br)c(Cl)s1 | 61 to 62 °C
9 | Nc1ccnc(CCCCCN2C(=O)c3ccccc3C2=O)n1 | 101 to 104 °C
10 | Cc1ccc(S(=O)(=O)Nc2ccc3cccc(N4CCN(C)CC4)c3c2)cc1 | 180 °C
11 | O=C1CNc2ncc(I)cc2N1Cc1ccc(C(F)(F)F)o1 | 189 to 191 °C
12 | CSc1nn2c(N)cc(CN3CCN(C)CC3)nc2c1S(=O)(=O)c1ccccc1 | 203 to 205 °C
13 | Cc1ccnc2c1C(=O)CC(c1ccccc1Br)C2 (configuration not stated) | 106 to 107 °C
14 | Cc1cc(CCCCCCCc2ccc(C3=NCCO3)cc2)on1 | 66 to 67 °C
15 | CCCCCc1ccc(-c2c(C(C)C)ccc(CO)c2C(C)C)nc1 | 81 to 82 °C
16 | Cc1nc(Cl)c([N+](=O)[O-])c(NCC(C)(C)N)c1C | 89 to 94 °C
17 | Cn1c(-c2ccc(-n3ccnc3)cc2)cnc1[C@H](Cc1ccccn1)N(C=O)c1cc2ccc(Cl)cc2o1 | 165 to 169 °C
18 | COc1ccc(-c2ccc3c(C#N)c(OC)ccc3c2)cc1 | 182 to 185 °C
19 | COc1ccc(CN2CCc3c(cnc4[nH]ncc34)C2)cc1 | 184 to 186 °C
20 | CN1C2CCCC1CN(c1ccc3cc([N+](=O)[O-])ccc3n1)C2 | 166 °C
21 | Cc1ccc(C)n1-c1nc(S(=O)(=O)Nc2c(Cl)cccc2Cl)n[nH]1 | 107 to 108 °C

Row | Compound | melting point
22 | Cn1c(=O)c(C(=O)O)c(-c2ccccc2Cl)c2cc(Cl)ccc21 | 197 to 198 °C
23 | CCC(O)(CC)c1cc(C)c(-c2cccc(OCc3ccc(CO)c(CO)c3)c2)c(C)c1 | 133 °C
24 | O=c1oc2ccccc2n1Sc1ccc(Cl)cc1 | 134 to 137 °C
25 | O=C(O)c1c(Cl)c(Cl)cc([N+](=O)[O-])c1Cl | 149 to 151 °C
26 | CS(=O)(=O)c1ccc(-c2cc(C(F)(F)F)cnc2C(=O)c2ccccc2)cc1 | 141 to 142 °C
27 | O=C(O)c1[nH]c2ccc(Cl)cc2c1S(=O)(=O)c1nccs1 | 260 to 261 °C
28 | COc1ccn2cc(-c3ccc(C)c(C)c3)nc2c1 | 175 °C
29 | COC(=O)C(CCC#N)(CCC#N)C(=O)OC | 143 °C
30 | Nc1ccc2c(c1)C(=O)C2 | 92 to 93 °C
31 | COC(=O)C=C(Br)SC#N | 139 to 142 °C
32 | Nc1nc(-c2ccc3c(c2)OCCO3)c(-c2ccccn2)s1 | 214 °C
33 | CC12CCCC=C1CCC1C2CCC2(C)C(O)CCC12 (configuration not stated) | 144 to 147 °C
34 | NC1CCOC1c1ncnc2nc[nH]c12 (configuration not stated) | 128 to 130 °C
35 | CCc1cc(N)ccc1N1C(=O)c2ccc(Cl)cc2C1=O | 118 to 120 °C
36 | O=C(NCCCCCCCCc1ccccc1)c1cc(-c2cccc(Cl)c2)c(OCCO)c(-c2cccc(Cl)c2)c1 | 165 to 167 °C
37 | Cc1ccc2c([nH]c(=O)n3c(=O)[nH]nc23)c1C | 380 to 382 °C
38 | COc1ccc(S(=O)(=O)Nc2ncnc(Cl)c2Cc2ccccc2OC)cc1 | 149 to 151 °C
39 | O=C(O)Cc1ccc(N2Cc3ccccc3C2=O)cc1 | 210 to 211 °C
40 | C/C(=C(\C#N)C(N)=S)N1CCCN(c2ccccn2)CC1 | 155 to 157 °C
41 | Cc1csc(-c2nc(-c3ccc(=O)n(C(C)C)n3)c(-c3ccccc3)nc2N)n1 | 238 to 240 °C
42 | CSC(=C[N+](=O)[O-])NCCCCc1nccs1 | 75.5 to 76 °C

Row | Compound | melting point
43 | COCc1c[nH]c(-c2ccc(OCc3ccccc3)cc2)n1 | 146 to 148 °C
44 | FC(F)(F)c1nnc2c(Cl)nc3ccc(Cl)cc3n12 | 133 to 135 °C
45 | O=C1CC(c2ccc(-c3ccc(OCc4ccc(Br)cc4)cc3)cc2)Cc2ccccc21 (configuration not stated) | 191 °C
46 | CCCC(=O)N1N=C(c2ccc([N+](=O)[O-])cc2)c2cc(Cl)c(Cl)cc2CC1C (configuration not stated) | 75 to 77 °C
47 | C[C@@H](N1CCN(C(=S)Nc2ccccc2)CC1)[C@](O)(Cn1cncn1)c1ccc(F)cc1F | 106 to 108 °C
48 | CCc1nn(COC(N)=O)c(CC)c1Cc1cc(Cl)cc(Cl)c1 | 153 to 155 °C
49 | O=c1nc(-c2ccc(Sc3ccc(Cl)cc3)nc2)sc2ccccc12 | 222 °C
50 | CCCc1c(C(=O)NCc2ccc(-c3ccc(OCC#N)c(Br)c3)cc2)cnn1-c1ccccc1 | 102 to 109 °C
51 | CC(C)C(NC(=O)OCc1ccccc1)P(O)O (configuration not stated) | 108 to 111 °C
52 | NC(=O)c1c(Cl)c(-c2cccnc2)n2c1CN(S(=O)(=O)c1ccc(C(F)(F)F)cc1)CC2 | 205 to 206 °C
53 | CCCCn1ccc(-c2ccc(Oc3cc(C)nc(C)c3)cc2F)c(C#N)c1=O | 170 °C
54 | CCCN(CCC)c1c2c(nn1C)N(c1c(C)cc(C)cc1Cl)CCC2 | 90 to 91 °C
55 | CS(=O)(=O)Nc1c(C(=O)c2cccc(Br)c2)[nH]c2cc(Cl)ccc12 | 184 to 185 °C
56 | Clc1nccnc1Sc1ccccc1 | 100 to 111 °C
57 | CN(C(=N)Nc1cccc2ccccc12)c1cccc2ccccc12 | 249 to 250 °C
58 | CN(C)C(=O)Nc1ccc(Oc2ccnc(Cl)n2)cc1 | 192 °C
59 | Cc1cc(-c2ccccc2)n2nc(S(C)(=O)=O)nc2n1 | 158 to 159 °C
60 | Nn1ccn(C2CCc3ccccc3C2)c1=S (configuration not stated) | 187 to 189 °C
61 | O=P(O)(O)CCCCCCCCCCCO | 109 to 112 °C

More lines, now with the values ahead:

Row | melting point | Compound
62 | 180 to 182 °C | COCCc1nc2c(N)nc3c(c2n1CCOCCNC(=O)Nc1ccccc1)CCCC3
63 | 237 to 240 °C | CCc1cc2c(ccc(=O)n2Cc2ccc(NC(=O)c3ccccc3C(=O)O)cc2)c(CC)n1
64 | 110 to 112 °C | C[C@@H]1CN(C(=O)OC(C)(C)C)C[C@H]2Cc3cc(Br)c(CO)nc3N21
65 | 104 to 105 °C | COc1cc(C(=O)C#CCO)cc(OC)c1OC
66 | 108 to 111 °C | CC1(c2ccc(N)c(C(=O)c3ccccc3)c2)OCCO1
67 | 166 to 167 °C | Cc1ccc(S(=O)(=O)NCCC(C(=O)NO)C2(CC(C)C)CCN(CCc3ccccc3)C2=O)cc1 (configuration not stated)
68 | 95 to 96 °C | CCCCc1nc2c(N)nc3ccccc3c2n1CCN1C(=N)NC2CSC(CCCCC(N)=O)C21 (configuration not stated)
69 | 213 to 214 °C | COc1cc(NC(=O)c2cc(C(C)C)c(C(C)C)s2)ccc1C(=O)O
70 | 272 °C | O=C1c2cccc(O)c2C(=O)N1CC(=O)N1c2ccccc2N(Cc2ccccc2)C(=O)[C@H]2CCC[C@H]21 (relative stereo)
71 | > 250 °C | O=C(O)C(Cl)=Cc1cc(-n2c(=O)cc(C(F)(F)F)[nH]c2=O)ccc1Cl
72 | > 250 °C | O=c1[nH]c2cc(C(F)(F)F)ccc2n(CCc2ncc[nH]2)c1=O
73 | 147 to 150 °C | CCOC(=O)c1ccc(N2CCN(C(=O)c3ccc(Cl)cc3)CC2)cc1
74 | 232 to 235 °C | CC(C(O)c1ccc2c(c1)CCCS2)N1CCC(n2c(=O)[nH]c3ccccc32)CC1 (configuration not stated)
75 | 152 to 153 °C | CCc1nc2c(nc1O)CCCC2
76 | 178 to 179 °C | Cc1nc(N2CCN(Cc3ccc(Cl)cc3)C2=O)sc1C(=O)NCc1cccnc1
77 | 208 to 211 °C | CC(=O)C1=CCC2C3CCC4=CC(=O)CCC4(C)C3(F)C(=O)CC12C (configuration not stated)
78 | 176 to 181 °C | CC(CS(=O)(=O)c1ccccc1)C1CCC2C3CC=C4C(C)(C)C(O)CCC4(C)C3CCC12C (configuration not stated)
79 | 159 to 163 °C | CC(=O)OCC1OC(n2cc(S)c(=O)[nH]c2=O)CC1(O)C(C)=O (configuration not stated)
80 | 59.5 to 60.5 °C | COc1cc(CCC=CC(C)=O)ccc1OCc1ccccc1
81 | 68 to 69 °C | Cc1ccc(C(=O)OC2CCCCC2=O)cc1 (configuration not stated)
82 | 196 to 198 °C | CCOC(=O)NC(=O)C1c2ccccc2Oc2c1cccc2C(F)(F)F (configuration not stated)

Row | melting point | Compound
83 | 97 to 100 °C | O=C(Nc1ccc(F)c(C(F)(F)F)c1)C1C(=O)C2CCC(C2)C1=O (configuration not stated)
84 | 110 to 113 °C | CCCCC(=O)c1ccc(OCC(=O)O)c(Cl)c1Cl
85 | 140 to 142 °C | CCN(CC)CCNC(=O)c1cccc2c(=O)c3cc(I)ccc3[nH]c12
86 | 191 to 192 °C | CC12CCC(=O)C=C1CCC1C3CC(OCC4CO4)C(O)(C(=O)CO)C3(C)CC(O)C12F (configuration not stated)
87 | 158 °C | CCOC(=O)C1=C(C)NN=C(c2ccco2)C1c1ccccc1 (configuration not stated)
88 | 150 °C | COc1ccc(C(=O)c2c(Cl)cc(Cl)cc2Cl)cc1Cc1ccc(=O)n(C)n1
89 | 115 °C | Cc1cc(C)c2c(c1)cc(C(=O)OCc1ccccc1)n2CC(=O)OC(C)(C)C
90 | > 250 °C | COC(=O)/C=C/c1ccc2c(c1)nc(N)c1ncn(CC(C)(C)O)c12
91 | 163 to 165 °C | O=C1CCC(N2Cc3c(OCc4ccc(CN5CCc6ncccc6C5)cc4)cccc3C2=O)C(=O)N1 (configuration not stated)
92 | 130 to 131 °C | O=C(O)CC1CCCc2c1n(Cc1ccc(Cl)cc1)c1c(F)cc(F)cc21 (configuration not stated)
93 | 189 to 190 °C | COCCOc1cc2ncnc(NC3=CC(=O)C(Oc4cccnc4)=CC3=O)c2cc1OC
94 | 121 to 122 °C | COc1ccc(-c2nn(CC(C)C)c(=O)c(CO)c2-c2ccc(OC)cc2)cc1
95 | 149 to 151 °C | O=C(O)C(O)N1C(=O)CCN1c1ccc(Cl)cc1 (configuration not stated)
96 | 128 to 145 °C | CCN(CC)CCc1cccc(Nc2ncc3c(n2)N(c2cccc(C#N)c2)C(=O)N(c2ccc(OC)cc2)C3C)c1 (configuration not stated)
97 | 150 to 151 °C | COc1cc(C(=O)Cc2ccccc2C)cc([N+](=O)[O-])c1O
98 | 213 °C | Cc1ccc(-c2cncc(OC3SCC(O)C(O)C3O)c2)cc1F (configuration not stated)
99 | 165 to 167 °C | COc1nc(C)c(C)nc1NC(=O)N1CCN(c2ccccc2C(C)C)CC1
100 | 105 °C | CC(C)[C@H]1CC[C@H](O)C=C1S(=O)(=O)c1ccccc1
101 | 155 to 156 °C | CCCNc1nc(N)c2ncn(C3CCCCC3)c2n1
102 | 108 to 109 °C | CS(=O)c1ccc(C2=CC(=O)C(C)(C)O2)cc1 (configuration not stated)

Source: a melting point compilation (Tetko et al.; mined from patent text by program, amines drawn as free bases though some values may be those of a salt)
